The values that follow come from ChEMBL document CHEMBL1132851, “Synthesis of the repeating unit of the O-specific polysaccharide of Shigella sonnei and quantitation of its serologic activity” (Bioorg Med Chem Lett, 2000).

For the assay, the system named is Shigella sonnei. The assay is described as follows: Compound was evaluated for the inhibition of hemolysis of Shigella sonneili polysaccharide-sensitized erythrocyte using a hyper-immune rabbit serum. The class given is functional, organism-based.
`CO[C@@H]1OC(C(=O)O)[C@H](O)C(O)[C@@H]1NC(C)=O` (stereo partly drawn): the IC50 turned out to be 6.9 mM.
As to `CO[C@@H]1OC(C)[C@H](N)C(O)[C@@H]1NC(C)=O` (stereo partly drawn), the IC50 was 9.8 mM.
With `CO[C@@H]1OC(C(=O)O)[C@H](O[C@@H]2OC(C)[C@H](N)C(O)[C@@H]2NC(C)=O)C(O)[C@@H]1NC(C)=O` (stereo partly drawn), the 50% inhibitory concentration (IC50) was 3.9 mM.
